Source: patent US5786492A, “Halichondrins” (Pharma Mar, S.A., priority 1992, dated 1998)
≈ marks a conversion by molar mass, not a printed value.

Test system: P388 cell line
Assay: antitumor P388 bioassay
Type: cell-based, murine
Settings: for IC50, murine leukaemia cell (P388 cell line): text comparison of three halichondrins
From the text: Most of the compounds have been submitted to the antitumor P388 bioassay.

SMILES | IC50 against P388 cell line (conc 0.0001 (unit of conc not given)) | IC50 against P388 cell line (conc 0.001 (unit of conc not given)) | IC50 against P388 cell line (other day, conc 0.001 (unit of conc not given)) | IC50, murine leukaemia cell (P388 cell line)
C=C1C[C@@H]2CC[C@@]34C[C@H]5O[C@H]6[C@@H](O3)[C@H]3O[C@H](CC[C@@H]3O[C@H]6[C@H]5O4)CC(=O)O[C@@H]3[C@@H](C)[C@@H]4O[C@@H]5C[C@]6(C[C@@H]7O[C@]8(C[C@H](C)[C@@H]9O[C@H]([C@@H](O)C[C@@H](O)CO)C[C@@H]9O8)C[C@H](C)[C@@H]7O6)O[C@@H]5C[C@@H]4O[C@H]3C[C@H]3O[C@@H](CC[C@@H]1O2)C[C@@H](C)C3=C [Halichondrin B] | 0.78 ng/mL (≈ 0.702 nM) | 1.58 ng/mL (≈ 1.42 nM) | < 0.09 ng/mL | 6.7 ng/mL (≈ 6.03 nM)
C=C1C[C@@H]2CC[C@@]34C[C@H]5O[C@H]6[C@@H](O3)[C@H]3O[C@H](CC[C@@H]3O[C@H]6[C@H]5O4)CC(=O)O[C@@H]3[C@@H](C)[C@@H]4O[C@@H]5C[C@]6(C[C@@H]7O[C@]8(C[C@H](C)[C@@H]9O[C@@H]%10CC(C(O)CO)O[C@@H]%10C[C@@H]9O8)C[C@H](C)[C@@H]7O6)O[C@@H]5C[C@@H]4O[C@H]3C[C@H]3O[C@@H](CC[C@@H]1O2)C[C@@H](C)C3=C (some centres unmarked) [Homohalichondrin B] | – | – | – | 6.4 ng/mL (≈ 5.7 nM)
